The target in the assay is T1, non-glyc-HS2ST WT (Gallus gallus, UniProt Q76KB1).
T1 construct: made in house; host or cells: E. coli Origami B (DE3)
T1 sequence (Q76KB1 69-356 limits assumed): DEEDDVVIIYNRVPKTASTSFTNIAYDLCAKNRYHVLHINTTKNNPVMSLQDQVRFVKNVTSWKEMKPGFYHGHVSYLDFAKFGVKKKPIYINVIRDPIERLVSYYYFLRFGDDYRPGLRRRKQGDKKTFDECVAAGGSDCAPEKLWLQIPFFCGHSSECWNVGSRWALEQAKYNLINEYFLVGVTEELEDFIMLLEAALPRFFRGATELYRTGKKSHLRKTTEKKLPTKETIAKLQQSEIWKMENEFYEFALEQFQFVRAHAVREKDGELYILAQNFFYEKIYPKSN
Nature of the assay: Inhibition assay of the reaction between HS2ST and completely de-O-sulfated N-sulfated heparin ([35S]PAPS). Type of assay: biochemical, chicken. The conditions noted are these: for IC50: p-nitrophenol-terminated hexasaccharides, substrate CDNS heparin 1 µg, [35S]PAPS, 37 °C, 1 h, n = 2 or 3. The procedure: Inhibition assays were thus performed with non-glyc-HS2ST and all compounds except for 1, the enzymatic substrate. […] Compound 5 appeared to inhibit at least as well as the product of the reaction (2); however, the IC50 was not reached even at the maximum substrate concentration (1 mM) for either 2 or 5. The addition of a single sulfate moiety enhanced the potency of the glycan as an inhibitor by ~10-fold (compare 3 and 4). The presence of both 2- and 3-O-sulfate moieties in the hexasaccharide (4) enhanced its inhibitory potential by approximately 100-fold relative to 5. These in vitro inhibition assays indicate that downstream products of the HS biosynthetic pathway could interfere with HS2ST catalysis in vivo.
The same glycan sequences were synthesized[62] for the inhibition assay as were used for the binding studies (Supplementary Table 1), except these terminated in p-nitrophenol rather than the PEG4-Biotin linker. The reaction mixture contained Tris pH 7.5 50 mM, 0.3 µg non-glyc-HS2ST WT, 0.08 nmol ^35S-labeled 3′-phosphoadenosine 5′-phosphosulfate ([^35S] PAPS) (3 × 10^4 cpm), completely de-O-sulfated N-sulfated heparin (CDNS heparin) 1 µg, and either compound 2, 3, 4 (0, 1, 2, 4, 8, and 16 µg) or 5 (2, 20, 60, and 160 µg) in a total volume of 0.1 ml. After incubation at 37 °C for 1 h, the reaction was quenched by adding 1 mL of 0.01% Triton X-100 buffer at pH 5.0 containing 150 mM NaCl, 50 mM NaOAc, 3 M urea and 1 mM ethylenediaminetetraacetic acid (EDTA). The samples were loaded on a small DEAE column (200 µl in size). The column was then washed five times with the same buffer, each time 1 ml. The column was further washed five times with 0.25 M NaCl in 0.001% Triton X-100 buffer each time 1 ml. The column was eluted with 1 ml of 1 M NaCl in 0.001% Triton X-100 buffer. The ^35S cpm of the eluted samples were tested the by a scintillation counter.

“GlcNS6S-GlcA-GlcNS3S6S-IdoA2S-GlcNS6S-GlcA~ [Compound 4]”: the “Enhancement of inhibitory potential relative to 5” value (4 relative to 5) was “approximately 100 fold”. Moreover, where the note is “4 versus 3”, the “Enhancement of inhibitory potency by addition of a single sulfate moiety (compare 3 and 4)” value is on record as ~ 10 fold.

In general, IC50 refers to the point on the concentration scale where inhibition reaches its midpoint. A lower IC50 goes with inhibition by little substance. As to “GlcNS6S-GlcA-GlcNS6S-GlcA-GlcNS6S-GlcA~ [Compound 5]”, the IC50 is > 1 mM.

On to “GlcNS-GlcA-GlcNS-IdoA2S-GlcNS-GlcA~ [Compound 2]”, for which the IC50 was > 1 mM.

Source of the values: PMC6081452, “Downstream Products are Potent Inhibitors of the Heparan Sulfate 2-O-Sulfotransferase” (Scientific Reports, 2018).
